Results taken from patent publication US9615576B2, “Pesticidal compositions and processes related thereto” (Dow AgroSciences LLC, priority 2011, dated 2017).

How the values were obtained:
[1] = test system: Beet Armyworm (BAW) (Spodoptera exigua); assay: Bioassays on Beet Armyworm (BAW), 128-well diet tray assay; type: in vivo; details: 168 h, 50 μg/cm^2 test compound on artificial diet, second instar larvae, 25° C., five to seven days, average of eight wells, read-out: BAW Rating (% mortality)
Method: (§1) Certain molecules disclosed in this document were tested against BAW and CEW using procedures described in the following examples. In the reporting of the results, the “BAW & CEW Rating Table” was used (See Table Section).
Bioassays on BAW (Spodoptera exigua)
Bioassays on BAW were conducted using a 128-well diet tray assay. one to five second instar BAW larvae were placed in each well (3 mL) of the diet tray that had been previously filled with 1 mL of artificial diet to which 50 μg/cm^2 of the test compound (dissolved in 50 μL of 90:10 acetone-water mixture) had been applied (to each of eight wells) and then allowed to dry. Trays were covered with a clear self-adhesive cover, and held at 25° C., 14:10 light-dark for five to seven days. Percent mortality was recorded for the larvae in each well; activity in the eight wells was then averaged. The results are indicated in the table entitled “Table 3: Assay Results” (See Table Section).

[2] = test system: Corn Earworm (CEW) (Helicoverpa zea); assay: Bioassays on Corn Earworm (CEW), 128-well diet tray assay; type: in vivo; details: 168 h, 50 μg/cm^2 test compound on artificial diet, second instar larvae, 25° C., five to seven days, average of eight wells, read-out: CEW Rating (% mortality)
Method: as §1
Bioassays on CEW (Helicoverpa zea)
Bioassays on CEW were conducted using a 128-well diet tray assay. one to five second instar CEW larvae were placed in each well (3 mL) of the diet tray that had been previously filled with 1 mL of artificial diet to which 50 μg/cm^2 of the test compound (dissolved in 50 μL of 90:10 acetone-water mixture) had been applied (to each of eight wells) and then allowed to dry. Trays were covered with a clear self-adhesive cover, and held at 25° C., 14:10 light-dark for five to seven days. Percent mortality was recorded for the larvae in each well; activity in the eight wells was then averaged. The results are indicated in the table entitled “Table 3: Assay Results” (See Table Section).

Compound	mortality at 50 µg/cm2 [1] [%]	mortality at 50 µg/cm2 [2] [%]
CNC(=O)c1ccc(/C=C/C(c2cc(Cl)cc(Cl)c2)C(F)(F)F)cc1 (stereo not drawn) [AC1]	0	0
CN(C)C(=O)c1ccc(/C=C/C(c2cc(Cl)cc(Cl)c2)C(F)(F)F)cc1 (stereo not drawn) [AC3]	0	0
O=C(NCC(F)(F)F)c1ccc(/C=C/C(c2cc(Cl)cc(Cl)c2)C(F)(F)F)cc1 (stereo not drawn) [AC4]	0	50 to 100
O=C(c1ccc(/C=C/C(c2cc(Cl)cc(Cl)c2)C(F)(F)F)cc1)N1CCOCC1 (stereo not drawn) [AC5]	0	0
Cc1cc(/C=C/C(c2cc(Cl)cc(Cl)c2)C(F)(F)F)ccc1C(=O)NCC(F)(F)F (stereo not drawn) [AC6, (E)-4-(3-(3,5-dichlorophenyl)-4,4,4-trifluorobut-1-enyl)-2-methyl-N-(2,2,2-trifluoroethyl)benzamide]	0	50 to 100
Cc1cc(/C=C/C(c2cc(Cl)cc(Cl)c2)C(F)(F)F)ccc1C(=O)NCc1ccc(Cl)nc1 (stereo not drawn) [AC7]	50 to 100	50 to 100
Cc1cc(/C=C/C(c2cc(Cl)cc(Cl)c2)C(F)(F)F)ccc1C(=O)N1CCCC1=O (stereo not drawn) [AC8]	0	0 to 50
Cc1cc(/C=C/C(c2cc(Cl)cc(Cl)c2)C(F)(F)F)ccc1C(=O)NCc1ccccc1F (stereo not drawn) [AC9]	50 to 100	50 to 100
Cc1cc(/C=C/C(c2cc(Cl)cc(Cl)c2)C(F)(F)F)ccc1C(=O)NC1CSC1 (stereo not drawn) [AC10]	50 to 100	50 to 100
Cc1cc(/C=C/C(c2cc(Cl)cc(Cl)c2)C(F)(F)F)ccc1C(=O)NCc1ccccc1 (stereo not drawn) [AC11]	50 to 100	50 to 100
Cc1cc(/C=C/C(c2cc(Cl)cc(Cl)c2)C(F)(F)F)ccc1C(=O)NCc1ccccn1 (stereo not drawn) [AC12]	50 to 100	50 to 100
Cc1cc(/C=C/C(c2cc(Cl)cc(Cl)c2)C(F)(F)F)ccc1C(=O)NC1CS(=O)(=O)C1 (stereo not drawn) [AC13]	50 to 100	50 to 100
Cc1cc(/C=C/C(c2cc(Cl)cc(Cl)c2)C(F)(F)F)ccc1C(=O)NCc1cccnc1 (stereo not drawn) [AC14]	50 to 100	0 to 50
Cc1cc(/C=C/C(c2cc(Cl)cc(Cl)c2)C(F)(F)F)ccc1C(=O)NCc1cnc(Cl)s1 (stereo not drawn) [AC15]	50 to 100	50 to 100
Cc1cc(/C=C/C(c2cc(Cl)cc(Cl)c2)C(F)(F)F)ccc1C(=O)NC(C)(C)c1ccccn1 (stereo not drawn) [AC16]	50 to 100	50 to 100
Cc1cc(/C=C/C(c2cc(Cl)cc(Cl)c2)C(F)(F)F)ccc1C(=O)NNc1ccccc1F (stereo not drawn) [AC17]	50 to 100	50 to 100
Cc1cc(/C=C/C(c2cc(Cl)cc(Cl)c2)C(F)(F)F)ccc1C(=O)NCc1ncccn1 (stereo not drawn) [AC18]	50 to 100	50 to 100
Cc1cc(/C=C/C(c2cc(Cl)cc(Cl)c2)C(F)(F)F)ccc1C(=O)NCC1CCOC1 (stereo not drawn) [AC19]	0	0
Cc1cc(/C=C/C(c2cc(Cl)cc(Cl)c2)C(F)(F)F)ccc1C(=O)NCc1ccoc1 (stereo not drawn) [AC20]	50 to 100	50 to 100
Cc1cc(/C=C/C(c2cc(Cl)cc(Cl)c2)C(F)(F)F)ccc1C(=O)NOCc1ccc(Cl)nc1 (stereo not drawn) [AC21]	0	0
Cc1cc(/C=C/C(c2cc(Cl)c(Cl)c(Cl)c2)C(F)(F)F)ccc1C(=O)NCc1ccc(Cl)nc1 (stereo not drawn) [AC22]	50 to 100	50 to 100
Cc1cc(/C=C/C(c2cc(Cl)c(Cl)c(Cl)c2)C(F)(F)F)ccc1C(=O)NC1CSC1 (stereo not drawn) [AC23]	50 to 100	50 to 100
Cc1cc(/C=C/C(c2cc(Cl)cc(Cl)c2)C(F)(F)F)ccc1C(=O)NCC(=O)NCC(F)(F)F (stereo not drawn) [AC24]	50 to 100	50 to 100
Cc1cc(/C=C/C(c2cc(Cl)c(Cl)c(Cl)c2)C(F)(F)F)ccc1C(=O)NC1CS(=O)(=O)C1 (stereo not drawn) [AC25]	50 to 100	50 to 100
Cc1cc(/C=C/C(c2cc(Cl)c(Cl)c(Cl)c2)C(F)(F)F)ccc1C(=O)NCc1cnc(Cl)s1 (stereo not drawn) [AC26]	50 to 100	50 to 100
Cc1cc(/C=C/C(c2cc(Cl)c(Cl)c(Cl)c2)C(F)(F)F)ccc1C(=O)NC(C)(C)c1ccccn1 (stereo not drawn) [AC27]	50 to 100	50 to 100

Compound	mortality at 50 µg/cm2 [1] [%]	mortality at 50 µg/cm2 [2] [%]
O=C(NCc1ccc(Cl)nc1)c1ccc(/C=C/C(c2cc(Cl)c(Cl)c(Cl)c2)C(F)(F)F)cc1Cl (stereo not drawn) [AC28]	50 to 100	50 to 100
O=C(NC1CSC1)c1ccc(/C=C/C(c2cc(Cl)c(Cl)c(Cl)c2)C(F)(F)F)cc1Cl (stereo not drawn) [AC29]	50 to 100	50 to 100
O=C(NC1CS(=O)(=O)C1)c1ccc(/C=C/C(c2cc(Cl)c(Cl)c(Cl)c2)C(F)(F)F)cc1Cl (stereo not drawn) [AC30]	50 to 100	50 to 100
O=C(NCc1ccc(Cl)nc1)c1ccc(/C=C/C(c2cc(Cl)c(Cl)c(Cl)c2)C(F)(F)F)cc1Br (stereo not drawn) [AC31]	50 to 100	50 to 100
O=C(NC1CSC1)c1ccc(/C=C/C(c2cc(Cl)c(Cl)c(Cl)c2)C(F)(F)F)cc1Br (stereo not drawn) [AC32]	50 to 100	50 to 100
O=C(NC1CS(=O)(=O)C1)c1ccc(/C=C/C(c2cc(Cl)c(Cl)c(Cl)c2)C(F)(F)F)cc1Br (stereo not drawn) [AC33]	50 to 100	50 to 100
O=C(NC1CSC1)c1ccc(/C=C/C(c2cc(Cl)c(Cl)c(Cl)c2)C(F)(F)F)cc1C(F)(F)F (stereo not drawn) [AC34]	50 to 100	50 to 100
O=C(NC1CS(=O)(=O)C1)c1ccc(/C=C/C(c2cc(Cl)c(Cl)c(Cl)c2)C(F)(F)F)cc1C(F)(F)F (stereo not drawn) [AC35]	50 to 100	50 to 100
O=C(NCc1ccc(Cl)nc1)c1ccc(/C=C/C(c2cc(Cl)c(Cl)c(Cl)c2)C(F)(F)F)cc1C(F)(F)F (stereo not drawn) [AC36]	50 to 100	50 to 100
Cc1cc(/C=C/C(c2ccc(Cl)c(Cl)c2)C(F)(F)F)ccc1C(=O)NCc1ccc(Cl)nc1 (stereo not drawn) [AC37]	50 to 100	50 to 100
Cc1cc(/C=C/C(c2cc(Cl)c(F)c(Cl)c2)C(F)(F)F)ccc1C(=O)NCc1ccc(Cl)nc1 (stereo not drawn) [AC38]	50 to 100	50 to 100
Cc1cc(/C=C/C(c2cc(Cl)cc(Cl)c2)C(F)(F)F)ccc1C(=O)NCc1cncnc1 (stereo not drawn) [AC39, 4-((E)-3-(3,5-dichlorophenyl)-4,4,4-trifluorobut-1-enyl)-2-methyl-N-((pyrimidin-5-yl)methyl)benzamide]	50 to 100	50 to 100
Cc1cc(/C=C/C(c2cc(Cl)cc(Cl)c2)C(F)(F)F)ccc1C(=O)NCC(=O)NC1CC1 (stereo not drawn) [AC40]	50 to 100	50 to 100
Cc1cc(/C=C/C(c2cc(Cl)cc(Cl)c2)C(F)(F)F)ccc1C(=O)NCC(=O)NC1CSC1 (stereo not drawn) [AC41]	50 to 100	0
Cc1cc(/C=C/C(c2cc(Cl)cc(Cl)c2)C(F)(F)F)ccc1C(=O)NCc1nc2ccccc2s1 (stereo not drawn) [AC42]	50 to 100	0
Cc1cc(/C=C/C(c2cc(Cl)cc(Cl)c2)C(F)(F)F)ccc1C(=O)NCc1cnccn1 (stereo not drawn) [AC43]	50 to 100	50 to 100
Cc1cc(/C=C/C(c2cc(Cl)cc(Cl)c2)C(F)(F)F)ccc1C(=O)NC(C)c1ccc(Cl)nc1 (stereo not drawn) [AC44]	50 to 100	50 to 100
Cc1cc(/C=C/C(c2cc(Cl)cc(Cl)c2)C(F)(F)F)ccc1C(=O)NN(C)c1ccccc1F (stereo not drawn) [AC45]	50 to 100	50 to 100
O=C(NCc1ccc(Cl)nc1)c1ccc(/C=C/C(c2cc(Cl)cc(Cl)c2)C(F)(F)F)cc1Br (stereo not drawn) [AC46]	50 to 100	50 to 100
Cc1cc(/C=C/C(c2cc(Cl)cc(Cl)c2)C(F)(F)F)ccc1C(=O)NCC(=O)NNC(=O)C1CC1 (stereo not drawn) [AC47]	0	0
Cc1cc(/C=C/C(c2cc(Cl)cc(Cl)c2)C(F)(F)F)ccc1C(=O)NCc1ccc(Cl)cc1 (stereo not drawn) [AC48]	50 to 100	50 to 100
O=C(NCc1ccc(Cl)nc1)c1ccc(/C=C/C(c2cc(Cl)cc(Cl)c2)C(F)(F)F)cc1F (stereo not drawn) [AC49]	50 to 100	50 to 100
Cc1cc(/C=C/C(c2cc(Cl)cc(Cl)c2)C(F)(F)F)ccc1C(=O)NCc1nccn1C (stereo not drawn) [AC50]	50 to 100	0
Cc1cc(/C=C/C(c2cc(Cl)cc(Cl)c2)C(F)(F)F)ccc1C(=O)NCC(=O)N(C)CC(F)(F)F (stereo not drawn) [AC51]	50 to 100	50 to 100
Cc1cc(/C=C/C(c2cc(Cl)c(F)c(Cl)c2)C(F)(F)F)ccc1C(=O)NC1CCOCC1 (stereo not drawn) [AC52]	50 to 100	50 to 100
